Experimental data: patent publication US20240016781A1, “TREATMENT OF KRAS MUTANT CANCERS” (MEI Pharma, Inc., priority 2020, published 2024)
Where two headings read alike, the source gives them in different places. One block for each molecule: values may come before it.

Experiments:
Assay in all cases: 72-hour CellTiter-Glo 2.0 growth inhibition screen (single agent, 9x9 combination dose matrix);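 for Best CI Level: inhibition effect level at which the best CI was calculated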
Assay type in all cases: cell-based
[1] = test system: Calu-1;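 for Best CI Level: inhibition effect level at which the best CI was calculated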
[2] = test system: MIA PaCa-2;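 for Best CI Level: inhibition effect level at which the best CI was calculated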
[3] = test system: NCI-H1792;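 for Best CI Level: inhibition effect level at which the best CI was calculated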
[4] = test system: NCI-H2030; conditions: for Emax: NCI-H2030;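 for Best CI Level: inhibition effect level at which the best CI was calculated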
[5] = test system: NCI-H23;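 for Best CI Level: inhibition effect level at which the best CI was calculated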
[6] = Calu-1 (KRAS G12C), enhancer + MEI-522 (Voruciclib), 72 h;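 for Best CI Level: inhibition effect level at which the best CI was calculated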
[7] = Calu-1, Lung, Additional Single Agent Responses (inhibition, % I), 72 h
[8] = Calu-1, Lung, growth inhibition (GI), AUC, single agent, 72 h
[9] = enhancer combined with MEI-522 (Voruciclib), Calu-1 (Lung), 72 hours, inhibition data
[10] = Homo sapiens, MIA PaCa-2, Pancreas, Additional Single Agent Responses (inhibition, % I), 72 h
[11] = MIA PaCa-2 (KRAS G12C), enhancer + MEI-522 (Voruciclib), 72 h;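 for Best CI Level: inhibition effect level at which the best CI was calculated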
[12] = MIA PaCa-2, Pancreas, Additional Single Agent Responses (inhibition, % I), 72 h
[13] = MIA PaCa-2, Pancreas, growth inhibition (GI), AUC, single agent, 72 h
[14] = enhancer combined with MEI-522 (Voruciclib), MIA PaCa-2 (Pancreas), 72 hours, inhibition data
[15] = NCl-H1792 (KRAS G12C), enhancer + MEI-522 (Voruciclib), 72 h
[16] = NCl-H1792, Lung, Additional Single Agent Responses (inhibition, % I), 72 h
[17] = NCl-H1792, Lung, growth inhibition (GI), AUC, single agent, 72 h
[18] = enhancer combined with MEI-522 (Voruciclib), NCl-H1792 (Lung), 72 hours, inhibition data
[19] = NCl-H2030 (KRAS G12C), enhancer + MEI-522 (Voruciclib), 72 h
[20] = NCl-H2030, Lung, Additional Single Agent Responses (inhibition, % I), 72 h
[21] = NCl-H2030, Lung, growth inhibition (GI), AUC, single agent, 72 h
[22] = enhancer combined with MEI-522 (Voruciclib), NCl-H2030 (Lung), 72 hours, inhibition data
[23] = Homo sapiens, NCI-H23, NCl-H23, Lung, Additional Single Agent Responses (inhibition, % I), 72 h
[24] = NCl-H23 (KRAS G12C), enhancer + MEI-522 (Voruciclib), 72 h
[25] = NCl-H23, Lung, Additional Single Agent Responses (inhibition, % I), 72 h
[26] = NCl-H23, Lung, growth inhibition (GI), AUC, single agent, 72 h
[27] = enhancer combined with MEI-522 (Voruciclib), NCl-H23 (Lung), 72 hours, inhibition data
[28] = Calu-1, Lung, growth inhibition (GI) curve, single agent, 72 h
[29] = MIA PaCa-2, Pancreas, growth inhibition (GI) curve, single agent, 72 h
[30] = NCl-H1792, Lung, growth inhibition (GI) curve, single agent, 72 h
[31] = NCl-H2030, Lung, growth inhibition (GI) curve, single agent, 72 h
[32] = NCl-H23, Lung, growth inhibition (GI) curve, single agent, 72 h

Structure (SMILES): C=CC(=O)N1CCN(c2nc(=O)n(-c3c(C)ccnc3C(C)C)c3nc(-c4c(O)cccc4F)c(F)cc23)[C@@H](C)C1 [AMG510]
- Best CI [1, 6]: 0.80
- Bliss Volume [1, 6]: 2.90
- HSA volume [1, 6]: 2.88
- Loewe Volume [1, 6]: 2.66
- Synergy Score [1, 6]: 4.52
- Response Area [1, 7]: 1.72
- Response Area [1, 8]: 2.29
- EC50 ([1]; Homo sapiens, Calu-1, 72 h, Calu-1, Lung, Additional Single Agent Responses (inhibition, % I), 72 h): 0.0028 µM
- EC50 ([1]; Homo sapiens, Calu-1, 72 h, Calu-1, Lung, growth inhibition (GI) curve, single agent, 72 h): 0.0029 µM
- Emax ([1]; Homo sapiens, Calu-1, Lung, Additional Single Agent Responses, 72 h, read-out: Max Response (% I)): 37%
- Emax ([1]; Homo sapiens, Calu-1, Lung, growth inhibition (GI), single agent, 72 h, read-out: Max Response (% GI)): 48%
- Best CI [1, 9]: 0.72
- Best CI Level [1, 9]: 55
- Bliss Volume [1, 9]: −0.15
- HSA volume [1, 9]: 1.55
- Loewe Volume [1, 9]: 1.28
- Synergy Score [1, 9]: 1.42
- EC50 [2, 10]: 0.0057 µM
- IC50 [2, 10]: 0.0147 µM
- Emax ([2]; Homo sapiens, MIA PaCa-2, Pancreas, Additional Single Agent Responses, 72 h, read-out: Max Response (% I)): 63%
- GI50 ([2]; Homo sapiens, MIA PaCa-2, Pancreas, growth inhibition (GI) curve, single agent, 72 h): 0.0092 µM
- Emax ([2]; Homo sapiens, MIA PaCa-2, Pancreas, growth inhibition (GI), single agent, 72 h, read-out: Max Response (% GI)): 77%
- Best CI [2, 11]: 0.65
- Bliss Volume [2, 11]: 3.75
- HSA volume [2, 11]: 5.03
- Loewe Volume [2, 11]: 4.68
- Synergy Score [2, 11]: 6.04
- Response Area [2, 12]: 3.12
- Response Area [2, 13]: 3.77
- Best CI [2, 14]: 0.60
- Best CI Level [2, 14]: 75
- Bliss Volume [2, 14]: 0.19
- HSA volume [2, 14]: 2.76
- Loewe Volume [2, 14]: 2.52
- Synergy Score [2, 14]: 2.16
- EC50 ([3]; Homo sapiens, NCI-H1792, NCl-H1792, Lung, Additional Single Agent Responses (inhibition, % I), 72 h): 0.0042 µM
- Emax ([3]; Homo sapiens, NCI-H1792, NCl-H1792, Lung, Additional Single Agent Responses, 72 h, read-out: Max Response (% I)): 29%
- Emax ([3]; Homo sapiens, NCI-H1792, NCl-H1792, Lung, growth inhibition (GI), single agent, 72 h, read-out: Max Response (% GI)): 37%
- Best CI [3, 15]: 0.36
- Bliss Volume [3, 15]: 5.76
- HSA volume [3, 15]: 3.59
- Loewe Volume [3, 15]: 4.64
- Synergy Score [3, 15]: 3.62
- Response Area [3, 16]: 1.05
- Response Area [3, 17]: 1.34
- Best CI [3, 18]: 0.46
- Bliss Volume [3, 18]: 2.25
- HSA volume [3, 18]: 2.86
- Loewe Volume [3, 18]: 3.31
- Synergy Score [3, 18]: 1.87
- Best CI Level ([3]; enhancer combined with MEI-522 (Voruciclib), NCl-H1792 (Lung), 72 hours, inhibition data, unit assumed): 35%
- EC50 ([4]; Homo sapiens, NCI-H2030, 72 h, NCl-H2030, Lung, Additional Single Agent Responses (inhibition, % I), 72 h): 0.0043 µM
- EC50 ([4]; Homo sapiens, NCI-H2030, 72 h, NCl-H2030, Lung, growth inhibition (GI) curve, single agent, 72 h): 0.0044 µM
- Emax ([4]; Homo sapiens, NCl-H2030, Lung, Additional Single Agent Responses, 72 h, read-out: Max Response (% I)): 38%
- Emax ([4]; Homo sapiens, NCl-H2030, Lung, growth inhibition (GI), single agent, 72 h, read-out: Max Response (% GI)): 47%
- Best CI [4, 19]: 0.47
- Bliss Volume [4, 19]: 6.35
- HSA volume [4, 19]: 4.90
- Loewe Volume [4, 19]: 4.51
- Synergy Score [4, 19]: 5.13
- Response Area [4, 20]: 1.65
- Response Area [4, 21]: 2.05
- Best CI [4, 22]: 0.70
- Best CI Level [4, 22]: 50
- Bliss Volume [4, 22]: 1.77
- HSA volume [4, 22]: 3.51
- Loewe Volume [4, 22]: 3.26
- Synergy Score [4, 22]: 2.04
- EC50 [5, 23]: 0.0067 µM
- IC50 [5, 23]: 0.157 µM
- Emax ([5]; Homo sapiens, NCI-H23, NCl-H23, Lung, Additional Single Agent Responses, 72 h, read-out: Max Response (% I)): 56%
- GI50 ([5]; Homo sapiens, NCI-H23, NCl-H23, Lung, growth inhibition (GI) curve, single agent, 72 h): 0.0232 µM
- Emax ([5]; Homo sapiens, NCI-H23, NCl-H23, Lung, growth inhibition (GI), single agent, 72 h, read-out: Max Response (% GI)): 71%
- Best CI [5, 24]: 0.76
- Bliss Volume [5, 24]: 8.97
- HSA volume [5, 24]: 6.92
- Loewe Volume [5, 24]: 6.28
- Synergy Score [5, 24]: 8.27
- Response Area [5, 25]: 2.82
- Response Area [5, 26]: 3.60
- Best CI [5, 27]: 0.53
- Best CI Level [5, 27]: 80
- Bliss Volume [5, 27]: 1.69
- HSA volume [5, 27]: 4.54
- Loewe Volume [5, 27]: 3.98
- Synergy Score [5, 27]: 3.46

- EC50 [1, 7]: 1.86 µM
- IC50 [1, 7]: 1.98 µM
- EC50 [1, 28]: 2.07 µM
- GI50 [1, 28]: 1.68 µM
- EC50 [2, 12]: 0.894 µM
- IC50 [2, 12]: 1.07 µM
- EC50 [2, 29]: 1.13 µM
- GI50 [2, 29]: 0.868 µM
- EC50 [3, 16]: 1.35 µM
- IC50 [3, 16]: 1.36 µM
- EC50 [3, 30]: 1.91 µM
- GI50 [3, 30]: 1.44 µM
- EC50 [4, 20]: 1.05 µM
- IC50 [4, 20]: 1.06 µM
- EC50 [4, 31]: 1.68 µM
- GI50 [4, 31]: 1.13 µM
- EC50 [5, 25]: 1.13 µM
- IC50 [5, 25]: 1.18 µM
- EC50 [5, 32]: 1.77 µM
- GI50 [5, 32]: 1.26 µM
Structure (SMILES): CN1CC[C@@H](c2c(O)cc(O)c3c(=O)cc(-c4ccc(C(F)(F)F)cc4Cl)oc23)[C@@H]1CO [MEI-522(Voruciclib)]
- Response Area [1, 7]: 2.48
- Max Response (% I) ([1]; Calu-1, Lung, Additional Single Agent Responses, 72 h): 90 % I
- Response Area [1, 8]: 4.35
- Max Response (% GI) ([1]; Calu-1, Lung, growth inhibition (GI), single agent, 72 h): 159 % GI
- Response Area [2, 12]: 2.64
- Max Response (% I) ([2]; MIA PaCa-2, Pancreas, Additional Single Agent Responses, 72 h): 85 % I
- Response Area [2, 13]: 3.63
- Max Response (% GI) ([2]; MIA PaCa-2, Pancreas, growth inhibition (GI), single agent, 72 h): 116 % GI
- Response Area [3, 16]: 2.83
- Max Response (% I) ([3]; NCl-H1792, Lung, Additional Single Agent Responses, 72 h): 98 % I
- Response Area [3, 17]: 5.24
- Max Response (% GI) ([3]; NCl-H1792, Lung, growth inhibition (GI), single agent, 72 h): 192 % GI
- Response Area [4, 20]: 2.92
- Max Response (% I) ([4]; NCl-H2030, Lung, Additional Single Agent Responses, 72 h): 98 % I
- Response Area [4, 21]: 5.28
- Max Response (% GI) ([4]; NCl-H2030, Lung, growth inhibition (GI), single agent, 72 h): 188 % GI
- Response Area [5, 25]: 2.83
- Max Response (% I) ([5]; NCl-H23, Lung, Additional Single Agent Responses, 72 h): 96 % I
- Response Area [5, 26]: 5.00
- Max Response (% GI) ([5]; NCl-H23, Lung, growth inhibition (GI), single agent, 72 h): 181 % GI
